Laboratory results: patent publication US20220062240A1, “METHODS OF TREATING CANCER USING A CLK INHIBITOR” (BioSplice Therapeutics, Inc., priority 2018, published 2022)
pEC50: −log10 of the molar value. Where two headings read alike, the source gives them in different places.

Tests used:
[1] = tested on: colorectal cancer (6 cell lines); assay: CellTiter-Glo Viability Assay, colorectal cancer; type: cell-based; details: Homo sapiens, inhibition of cancer cell proliferation
[2] = tested on: prostate cancer (5 cell lines); assay: CellTiter-Glo Viability Assay, prostate cancer; type: cell-based; details: Homo sapiens
[3] = tested on: lung cancer (4 cell lines); assay: CellTiter-Glo Viability Assay, lung cancer; type: cell-based; details: Homo sapiens, inhibition of cancer cell proliferation
[4] = tested on: haematopoietic & lymphoid tumors (13 cell lines); assay: CellTiter-Glo Viability Assay, haematopoietic & lymphoid tumors; type: cell-based; details: Homo sapiens, inhibition of cancer cell proliferation
[5] = tested on: ovarian cancer (4 cell lines); assay: CellTiter-Glo Viability Assay, ovarian cancer; type: cell-based; details: Homo sapiens, inhibition of cancer cell proliferation
all 50 cell lines = assay: CellTiter-Glo Viability Assay, average across all cell lines; type: cell-based; details: Homo sapiens; across all 50 cell lines; read-out: average EC50 for inhibition of cancer cell proliferation
Outline: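 Human cancer cell lines from breast, colorectal, haematopoietic/lymphoid, liver, lung, ovarian, pancreatic and prostate tumours were seeded at 300-3,000 cells/well and exposed to compound in duplicate for four days at 37° C, 5% CO2. Viable cells were measured by ATP luminescence; EC50 values came from dose-response curves.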

T47D = assay: CellTiter-Glo Viability Assay, breast cancer; type: cell-based; details: Homo sapiens, 96 h, breast cancer, four days, read-out: EC50
HCC1599 = assay: CellTiter-Glo Viability Assay, breast cancer; type: cell-based; details: Homo sapiens, 96 h; HCC1599, breast cancer, four days; read-out: EC50
DU4475 = assay: CellTiter-Glo Viability Assay, breast cancer; type: cell-based; details: Homo sapiens, DU-4475, 96 h; DU4475, breast cancer, four days; read-out: EC50
CAMA1 = assay: CellTiter-Glo Viability Assay, breast cancer; type: cell-based; details: Homo sapiens, CAMA-1, 96 h; CAMA1, breast cancer, four days; read-out: EC50
BT-549 = assay: CellTiter-Glo Viability Assay, breast cancer; type: cell-based; details: Homo sapiens, 96 h; BT-549, breast cancer, four days; read-out: EC50
MDA-MB-231-Luc = assay: CellTiter-Glo Viability Assay, breast cancer; type: cell-based; details: Homo sapiens, 96 h; MDA-MB-231-Luc, breast cancer, four days; read-out: EC50
ZR-75-1 = assay: CellTiter-Glo Viability Assay, breast cancer; type: cell-based; details: Homo sapiens, 96 h; ZR-75-1, breast cancer, four days; read-out: EC50
MCF7 = assay: CellTiter-Glo Viability Assay, breast cancer; type: cell-based; details: Homo sapiens, 96 h; MCF7, breast cancer, four days; read-out: EC50
[6] = tested on: pancreatic cancer (8 cell lines); assay: CellTiter-Glo Viability Assay, pancreatic cancer; type: cell-based; details: Homo sapiens, inhibition of cancer cell proliferation
[7] = tested on: liver cancer (3 cell lines); assay: CellTiter-Glo Viability Assay, liver cancer; type: cell-based; details: Homo sapiens, inhibition of cancer cell proliferation
CLK2 = target: T1, CLK2 (Homo sapiens, UniProt P49760); assay: CLK2 kinase activity assay (Z-lyte, Ser/Thr 6 peptide); type: biochemical; details: recombinant CLK2 kinase, ATP 60 μM; read-out: EC50
T1 construct: purchased Thermo Fisher (Life Technologies), Z'-LYTE Kinase Assay Kits
Protocol: All reactions were performed in duplicate.

[8] = HCT-116, HCT116 cell line, read-out: Colorectal cancer, EC50 (μM) HCT116
[9] = HT-29, HT29 cell line, read-out: Colorectal cancer, EC50 (μM) HT29
[10] = SW-620, SW620 cell line, read-out: Colorectal cancer, EC50 (μM) SW620
[11] = DLD-1 cell line, read-out: Colorectal cancer, EC50 (μM) DLD-1
[12] = SW48 cell line, read-out: Colorectal cancer, EC50 (μM) SW48
[13] = SW480 cell line, read-out: Colorectal cancer, EC50 (μM) SW480
[14] = DU-145, read-out: Prostate cancer EC50 Du-145
[15] = PC-3, PC3 cell line, inhibition of cancer cell proliferation, read-out: Prostate cancer EC50 PC3
[16] = 22Rv1 cell line, inhibition of cancer cell proliferation, read-out: Prostate cancer EC50 22Rv1
[17] = LNCap clone FGC cell line, inhibition of cancer cell proliferation, read-out: Prostate cancer EC50 LNCap clone FGC
[18] = VCaP (Sigma) cell line, inhibition of cancer cell proliferation, read-out: Prostate cancer EC50 VCaP (Sigma)
[19] = A-427, A427 cell line, read-out: Lung cancer, EC50 (μM) A427
[20] = HCC78, HCC-78 cell line, read-out: Lung cancer, EC50 (μM) HCC-78
[21] = NCI-H460 cell line, read-out: Lung cancer, EC50 (μM) NCI-H460
[22] = NCI-H522 cell line, read-out: Lung cancer, EC50 (μM) NCI-H522
[23] = DND41, DND-41 cell line, read-out: Haematopoietic & Lymphoid tumors, EC50 (μM) DND-41
[24] = MV4-11, MV-4-11 cell line, read-out: Haematopoietic & Lymphoid tumors, EC50 (μM) MV-4-11
[25] = Rec1, REC-1 cell line, read-out: Haematopoietic & Lymphoid tumors, EC50 (μM) REC-1
[26] = SU-DHL-4, SUDHL4 cell line, read-out: Haematopoietic & Lymphoid tumors, EC50 (μM) SUDHL4
[27] = HL-60 cell line, read-out: Haematopoietic & Lymphoid tumors, EC50 (μM) HL-60
[28] = JM1 cell line, read-out: Haematopoietic & Lymphoid tumors, EC50 (μM) JM1
[29] = JURKAT, Clone E6-1 cell line, read-out: Haematopoietic & Lymphoid tumors, EC50 (μM) JURKAT, Clone E6-1
[30] = JeKo-1 cell line, read-out: Haematopoietic & Lymphoid tumors, EC50 (μM) JeKo-1
[31] = KASUMI-1 cell line, read-out: Haematopoietic & Lymphoid tumors, EC50 (μM) KASUMI-1
[32] = Loucy cell line, read-out: Haematopoietic & Lymphoid tumors, EC50 (μM) Loucy
[33] = MOLT-4 cell line, read-out: Haematopoietic & Lymphoid tumors, EC50 (μM) MOLT-4
[34] = TF-1 cell line, read-out: Haematopoietic & Lymphoid tumors, EC50 (μM) TF-1
[35] = TOLEDO cell line, read-out: Haematopoietic & Lymphoid tumors, EC50 (μM) TOLEDO
[36] = PA-1, PA1 cell line, read-out: Ovarian cancer, EC50 (μM) PA1
[37] = TOV112D, TOV-112D cell line, read-out: Ovarian cancer, EC50 (μM) TOV-112D
[38] = OV-90 cell line, read-out: Ovarian cancer, EC50 (μM) OV-90
[39] = OVCAR-3 cell line, read-out: Ovarian cancer, EC50 (μM) OVCAR-3
[40] = BXPC-3, BxPC3 cell line, read-out: Pancreatic cancer, EC50 BxPC3
[41] = CAPAN-1, Capan1 cell line, read-out: Pancreatic cancer, EC50 Capan1
[42] = Capan-2, Capan2 cell line, read-out: Pancreatic cancer, EC50 Capan2
[43] = MIA PaCa-2 cell line, read-out: Pancreatic cancer, EC50 MIA PaCa-2
[44] = PANC 05.04 cell line, read-out: Pancreatic cancer, EC50 PANC 05.04
[45] = PANC-1 cell line, read-out: Pancreatic cancer, EC50 PANC-1
[46] = UPAFII cell line, read-out: Pancreatic cancer, EC50 UPAFII
[47] = SNU-398, SNU398 cell line, read-out: Liver cancer, EC50 SNU398
[48] = HEPG2 cell line, read-out: Liver cancer, EC50 HEPG2
[49] = PLC/PRF/5 cell line, read-out: Liver cancer, EC50 PLC/PRF/5

T1 sequence (P49760 whole entry): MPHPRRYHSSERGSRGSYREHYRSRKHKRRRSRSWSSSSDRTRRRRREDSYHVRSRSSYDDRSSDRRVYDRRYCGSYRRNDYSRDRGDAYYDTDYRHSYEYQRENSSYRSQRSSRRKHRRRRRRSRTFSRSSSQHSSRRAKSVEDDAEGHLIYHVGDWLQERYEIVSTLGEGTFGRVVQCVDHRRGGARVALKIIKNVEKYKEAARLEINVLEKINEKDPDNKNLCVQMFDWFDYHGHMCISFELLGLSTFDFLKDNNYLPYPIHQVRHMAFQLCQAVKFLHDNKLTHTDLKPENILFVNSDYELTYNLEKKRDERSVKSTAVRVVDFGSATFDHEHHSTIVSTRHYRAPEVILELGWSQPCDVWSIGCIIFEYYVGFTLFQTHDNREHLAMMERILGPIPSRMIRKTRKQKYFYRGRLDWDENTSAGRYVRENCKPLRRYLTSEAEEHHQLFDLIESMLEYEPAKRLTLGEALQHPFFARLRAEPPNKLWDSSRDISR

`CN1CCC2(CC1)CN(c1cc(C(=O)Nc3cc4cc(-c5cnn(C)c5CO)ccc4cn3)ccn1)C2` [Compound 76] showed an EC50 [1, 8] of 0.455 µM, an EC50 [1, 9] of 1.41 µM and an EC50 [1, 10] of 0.241 µM. The EC50 [1, 11] was 1.53 µM, the EC50 [1, 12] was 0.16 µM and the EC50 [1, 13] was 0.384 µM. The pEC50 [2, 14] was 6.03, the pEC50 [2, 15] was 6.26 and the pEC50 [2, 16] was 6.40. The pEC50 [2, 17] was 5.86, the pEC50 [2, 18] was 5.77 and the EC50 [3, 19] was 0.481 µM. For the same compound, the EC50 [3, 20] was 1.07 µM, the EC50 [3, 21] was 2.05 µM and the EC50 [3, 22] was 0.246 µM. The EC50 [4, 23] was 0.547 µM, the EC50 [4, 24] was 0.123 µM and the EC50 [4, 25] was 1.77 µM. For the same compound, the EC50 [4, 26] was 0.533 µM, the EC50 [4, 27] was 1.63 µM and the EC50 [4, 28] was 0.167 µM. It also gave an EC50 [4, 29] of 1.33 µM, an EC50 [4, 30] of 0.142 µM and an EC50 [4, 31] of 0.547 µM. The EC50 [4, 32] was 0.385 µM, the EC50 [4, 33] was 0.734 µM and the EC50 [4, 34] was 2.39 µM. For the same compound, the EC50 [4, 35] was 0.373 µM, the EC50 [5, 36] was 0.725 µM and the EC50 [5, 37] was 0.277 µM. It also gave an EC50 [5, 38] of 1.07 µM, an EC50 [5, 39] of 0.194 µM and a pEC50 (all 50 cell lines) of 6.04. For the same compound, the pEC50 (T47D) was 5.91, the pEC50 (HCC1599) was 6.17 and the pEC50 (DU4475) was 6.33. The pEC50 (CAMA1) was 6.19, the pEC50 (BT-549) was 5.98 and the pEC50 (MDA-MB-231-Luc) was 6.10. For the same compound, the pEC50 (ZR-75-1) was 6.02, the pEC50 (MCF7) was 5.47 and the pEC50 [6, 40] was 5.68. For the same compound, the pEC50 [6, 41] was 6.09, the pEC50 [6, 42] was 5.93 and the pEC50 [6, 43] was 6.66. For the same compound, the pEC50 [6, 44] was 5.97, the pEC50 [6, 45] was 5.78 and the pEC50 [6, 46] was 6.20. It also gave a pEC50 [7, 47] of 6.92, a pEC50 [7, 48] of 6.18 and a pEC50 [7, 49] of 5.59. The pEC50 (CLK2) was 8.59.

For `CN1CCC(Oc2ccc(NC(=O)c3n[nH]cc3/C=C/c3cccnc3)cn2)CC1` [Compound 93], the EC50 [1, 8] was 1.88 µM, the EC50 [1, 9] was 5.48 µM and the EC50 [1, 10] was 1.36 µM. The EC50 [1, 11] was 1.35 µM, the EC50 [1, 12] was 0.577 µM and the EC50 [1, 13] was 3.5 µM. The pEC50 [2, 14] was 5.04, the pEC50 [2, 15] was 5.03 and the pEC50 [2, 16] was 5.97. The pEC50 [2, 17] was 5.06, the pEC50 [2, 18] was 5.69 and the EC50 [3, 19] was 4.12 µM. It also gave an EC50 [3, 20] greater than 10 µM, an EC50 [3, 21] of 5.17 µM and an EC50 [3, 22] of 1.42 µM. The EC50 [4, 23] was 4.78 µM, the EC50 [4, 24] was 0.273 µM and the EC50 [4, 25] was 1.26 µM. The EC50 [4, 26] was 2.56 µM, the EC50 [4, 27] was 4.59 µM and the EC50 [4, 28] was 0.765 µM. It also gave an EC50 [4, 29] of 3.73 µM, an EC50 [4, 30] of 0.706 µM and an EC50 [4, 31] of 0.479 µM. It also gave an EC50 [4, 32] of 1.96 µM, an EC50 [4, 33] of 5.56 µM and an EC50 [4, 34] of 3.59 µM. The EC50 [4, 35] was 0.886 µM, the EC50 [5, 36] was 5.95 µM and the EC50 [5, 37] was 1.55 µM. It also gave an EC50 [5, 38] greater than 10 µM, an EC50 [5, 39] of 2.54 µM and a pEC50 (all 50 cell lines) of 5.34. The pEC50 (T47D) was 6.20, the pEC50 (HCC1599) was 6.62 and the pEC50 (DU4475) was 5.99. It also gave a pEC50 (CAMA1) of 5.11, a pEC50 (BT-549) of 5.43 and a pEC50 (MDA-MB-231-Luc) of 5.17. The pEC50 (ZR-75-1) was 5.17, the pEC50 (MCF7) was less than 5.00 and the pEC50 [6, 40] was 5.04. For the same compound, the pEC50 [6, 41] was less than 5.00, the pEC50 [6, 42] was less than 5.00 and the pEC50 [6, 43] was 5.70. For the same compound, the pEC50 [6, 44] was less than 5.00, the pEC50 [6, 45] was less than 5.00 and the pEC50 [6, 46] was 5.16. The pEC50 [7, 47] was 5.69, the pEC50 [7, 48] was 5.44 and the pEC50 [7, 49] was 5.00. The pEC50 (CLK2) was 8.43.
